Measured values reported in paper PMC12522106 (Cancer Research Communications, 2025).
Read-outs that look alike come from different tables or passages of the source.

Columns and labels:
143B sarcospheres [1] = assay: Cell cycle analysis by flow cytometry (DAPI); assay type: cell-based, human; details: 10 nmol/L for 24 hours
Procedure: (§1) Sarcospheres were washed with PBS to remove any media and then resuspended in Accumax Cell Detachment Solution ([…] Technologies, #07921) for 15 to 30 minutes. Sarcospheres were manually dissociated by pipetting up and down at least 10 times. Following dissociation, cells were fixed in Cytofix/Cytoperm (BD Cytofix/Cytoperm Fixation/Permeabilization Solution Kit, BDB554714) for 10 to 20 minutes at 4°C protected from light. Fixation solution was removed with two washes in sterile PBS. Cells were resuspended in PBS and stored for no more than 72 hours at 4°C. Cells were transferred to flow cytometry tubes for staining. For DAPI staining, 1 mg/mL DAPI (BD Pharmingen, #564907) was diluted 1000-fold in sterile PBS and 500 μL was added to the appropriate tubes containing an equal volume of cell suspension. Flow cytometry was performed using a BD LSRFortessa X-20 flow cytometer using a 407 laser. Cell cycle analysis was performed using the Watson model in FlowJo software (version 10.10.0).

LM7 sarcospheres [2] = assay: Cell cycle analysis by flow cytometry (DAPI); assay type: cell-based, human; details: 10 nmol/L for 24 hours
Procedure: as §1

[3] = system: murine K7M2 osteosarcoma cells; set-up: method as in PMID 32599665; details: compared with LM7 model; cited from earlier work
[4] = system: monolayers of either established osteosarcoma cell lines or PDX cell lines; set-up: method as in PMID 30395907, PMID 26601688, PMID 37457661, PMID 35411591; details: cited from earlier work
LM7 sarcospheres [5] = assay: Sarcosphere size (Incucyte); assay type: cell-based, human; details: 48-hour period
[6] = system: LM7 cell–derived lung metastases; set-up: method as in PMID 32599665; details: administration continued for the entire 21-week observation period; cited from earlier work
143B sarcospheres [7] = assay: Sarcosphere size (Incucyte); assay type: cell-based, human; details: initial 48-hour observation period
LM7 sarcospheres [8] = assay: Sarcosphere resazurin metabolic activity (initial and secondary screens); assay type: cell-based, human; details: secondary screen; without MAP
Procedure: Khanna DVM, PhD (NCI). […] Medium was sterile filtered before use.
Highly metastatic osteosarcoma cells cultured in monolayers at 50% to 80% confluence were lifted with Accutase (Innovative Cell Technologies, Inc., cat. #NC9839010), resuspended in media, and diluted to the desired concentration. […] Following cell seeding, plates were centrifuged (1,000 g for 10 minutes at 4°C) and then incubated at 37°C with 5% CO2. […] Then, 100 μL drug treatment or vehicle was added to each well. […] Resazurin reduction on day 2 by vehicle-treated sarcospheres was compared with resazurin reduction on day 0 to calculate sarcosphere growth without drug over 2 days in selected experiments.
Plates were incubated at 37°C in 5% CO2 for 2 or 6 hours.
Sarcospheres were matured for 24 hours and then treated for 48 hours with media containing 10 µmol/L of each drug and 0.1% DMSO. […] Growth inhibition represents a more clinically translatable measure for screening studies in which a value of 0% represents stable disease since the start of treatment, values of 0% to 100% represent progression in which 100% is the untreated control, and values less than 0% represent regression in which −100% represents blank wells without sarcospheres.

[9] = humans, cited from earlier work
[10] = cited from earlier work
[11] = system: patient-derived sarcospheres; assay: Sarcosphere size (Incucyte); assay type: cell-based, human, canine; details: 48-hour observation period; sensitive and resistant samples
Procedure: The number of patient-derived cells required to obtain sarcospheres with 400-μm diameters was determined for each patient and varied from 1,000 to 15,000 cells per sarcosphere.

[12] = system: human and canine patient-derived sarcospheres; assay: Resazurin metabolic activity of patient-derived sarcospheres, human and canine summarised together; assay type: cell-based; details: 48 h, the other patient samples, read-out: ED50s of romidepsin-resistant patient samples
Source text: Osteosarcoma tissue was obtained during standard-of-care procedures (biopsies or resections) in human patients treated at Indiana University Health and Riley Children’s Hospital with Institutional Review Board approval (#1501467439). Tissue from canine patients with osteosarcoma was obtained from standard-of-care amputations at the Purdue University College of Veterinary Medicine and the Metropolitan Veterinary Hospital. Osteosarcoma diagnosis was confirmed by review of pathology reports. Demographic and clinical information for human and canine patients is in Table 1. Primary osteosarcoma cells were isolated by collagenase/mechanical dispersion using a modification of a previously described protocol ([35]). […] The tissue was rinsed with cold PBS (Cytiva, cat. #SH30028.02) and minced prior to incubation in 10 mL of culture media containing collagenase type II (750 units/mL with 13–18 units of clostripain/mL, Worthington, cat. #LS004176) for 3 hours at 37°C and 5% CO2. The media and tissue fragments were centrifuged at 200 g for 5 minutes. […]
The number of patient-derived cells required to obtain sarcospheres with 400-μm diameters was determined for each patient and varied from 1,000 to 15,000 cells per sarcosphere. […]

## C/C=C1\NC(=O)[C@H]2CSSCC/C=C/[C@H](CC(=O)N[C@H](C(C)C)C(=O)N2)OC(=O)[C@H](C(C)C)NC1=O [romidepsin]
143B sarcospheres [1]
  cell cycle block: induced a G2–M cell cycle block
  proportion of sub-G1 cells: without altering the proportion of sub-G1 cells
LM7 sarcospheres [2]
  cell cycle block: without inducing a cell cycle block
  proportion of sub-G1 cells: increased the proportion of sub-G1 cells
[3]
  effect on lung metastases: less effect
[4]
  standing in four independent screens: among the top hits
LM7 sarcospheres [5]
  effect on sarcosphere size: did not alter size
[6]
  growth of lung metastases: prevented
143B sarcospheres [7]
  effect on sarcosphere size: inhibited the increase in size
LM7 sarcospheres [8]
  rank of ED50 among the 13 drugs: lowest ED50
[9]
  Cmax: ~700 nM
[9]; listed as Romidepsin
  Cmax: 700 nM
[10]
  most common severe adverse events: thrombocytopenia and neutropenia
  most common side effect: Nausea
  severe toxicities: few severe toxicities
[10]; reported in humans, rats, and beagle dogs
  most concerning potential side effect: cardiac toxicity
[11]
  effect on sarcosphere size: did not change in size
[12]
  EC50: > 1000 nM
